Where two headings read alike, the source gives them in different places.
Experiments:
Systemic Lupus = assay: Case reports, systemic lupus; conditions: person
MS patients = assay: Retrospective chart review of MS patients receiving LDN; assay type: in vivo, human
Description: This study investigated the safety, tolerability, and benefits (fatigue, reduction) of LDN in patients with MS. It reviewed the number of patients who stopped taking LDN and if there were specific reasons for stopping the LDN. The frequency and variety of side effects that were specific to LDN use are reported. […] 1, 2005 and May 31, 2012. There were 215 MS patients having exposure to LDN during the time of this study. […] In addition to the assessment we review Brain MRIs and Spinal Cord MRIs that were obtained as part of the clinical status of the patient and standard of care.
It reviewed the number of patients who stopped taking IMMEDIATE RELEASE NALTREXONE (LDN) and if there were specific reasons for stopping the IMMEDIATE RELEASE NALTREXONE (LDN). […] 1, 2005 and May 31, 2012. […] In addition to the assessment we review Brain Mills and Spinal Cord MRIs that were obtained as part of the clinical status of the patient and standard of care.

[1] = normal volunteers, HIV positive, multiple sclerosis, autism, fibromyalgia, diabetes, and cancer patients; cited from earlier work
Shingles = assay: Case report, shingles; assay type: in vivo, human; conditions: person; 4.5 mg nightly since 2013
Method: A person diagnosed with Shingles in 2010 over 18 months had 8 major outbreaks, and was treated with acyclovir, and valacyclovir, as the outbreaks continued they prescribed Lidocaine patches and pain medications.

Crohn's disease = assay: Randomized placebo-controlled study in 40 subjects with active Crohn's disease; assay type: in vivo, human
Description: Forty subjects with active Crohn's disease were enrolled in the study. […] Providers and patients were masked to treatment assignment. The primary outcome was the proportion of subjects in each arm with a 70-point decline in Crohn's Disease Activity Index score (CDAI). The secondary outcome included mucosal healing based upon colonoscopy appearance and histology.

colon cancer = assay: Case report, stage 4 colon cancer; assay type: in vivo, human
Description: A person diagnosed with stage 4-colon cancer, 2007 which had spread to their lungs and liver, they removed 40% of their colon and began a round of chemotherapy and three surgeries removed 40% of their colon, half is their right lung and 75% of their liver. During the next 18 months received 47 weeks of chemotherapy (a combination of 4 chemo drugs at once).

multiple sclerosis = assay: Case reports, multiple sclerosis
Follicular Lymphoma (FL) = conditions: 1 year after last CT/PET imaging; cited from earlier work
asymptomatic HIV+ adults = assay: Single blind 90 day randomized bridging clinical trial in Nigeria; assay type: in vivo, human
Method: The differences in CD4 count, CD4%, hemoglobin, viral load, interferon alpha, and standard chemistry panel were measured between treated versus non-treated groups four times throughout the study. […] When used alone, it appears to slow and/or stop the progression of the disease.

autism = assay: Case reports, autism; conditions: child
Rheumatoid Arthritis = assay: Case reports, Rheumatoid Arthritis; assay type: in vivo, human
Method: A person diagnosed with Rheumatoid Arthritis in 2006 and was being treated with methotrexate and plaquenil but patients continued with pain and fatigue.
person two diagnosed 5 years ago with RA was treated with Methotrexate 25 mg per week and Remicade […] every 6 weeks, the fatigue and pain continued, along with the inflammation and general weakness. Sleep disturbed nightly due to pain in my shoulders and hips. Patient felt their life was not acceptable and none of the immunosuppression drugs were helping. […] Within two weeks patient stopped even ibuprophen. Rheumatoid factor has gone from 127 to 66 in 4 months and has stayed stable. […] Occasionally patient has pain but it is easily controlled with a normal dosage of ibuprophen.
A person, diagnosed with RA in 1999 stayed very active until 2005 on a combination of Methotrexate and Prednisone but was have difficulty maintaining their business due to fatigue and severe joint pain with deformity of their hands and elbows. Patient was told to increase their does and start a second immunomodulating drug. Patient no longer wanted to continue with immunosuppression drug or steroids due to the side effects.

prostate cancer = assay: Case report, stage 3 prostate cancer; assay type: in vivo, human; conditions: person; 4.5 mg nightly with Docetaxel
Description: person was diagnosed with stage 3 prostate cancer which they were originally treated for 5 years before began 3 rounds of Docetaxel (Taxotere®).

Q: For `O=C1CC[C@@]2(O)[C@H]3Cc4ccc(O)c5c4[C@@]2(CCN3CC2CC2)[C@H]1O5` [Immediate release naltrexone, naltrexone], which mobility (Systemic Lupus; 3 mg, within three weeks) is on record?
A: improved mobility

Q: And the hospital stays (Systemic Lupus; 4.5 mg, since March of 2013)?
A: no hospital stays

Q: What about the ANA (Systemic Lupus; for 7 years) of the same molecule?
A: normal

Q: What about the Lupus status (Systemic Lupus; liquid form titrated from 0.1 mg to 1.5 mg) of the same molecule?
A: in remission

Q: What about the tolerability (Systemic Lupus; started at 1.5 mg) of the same molecule?
A: unable to take it due to insomnia and pruritis

Q: And the “quality of life surveys: patients improved” value (MS patients; human, in vivo)?
A: 83 patients

Q: And the “quality of life surveys: patients stable” value (MS patients; human, in vivo)?
A: 92 patients

Q: And the “quality of life surveys: patients worse” value (MS patients; human, in vivo)?
A: 9

Q: And the “MRI scans showed improvement” value (MS patients; of 215 patients)?
A: 14

Q: And the MRI scans stable (MS patients; of 215 patients)?
A: 113

Q: What about the “MRI scans slightly worse” value (MS patients; of 215 patients, new but inactive lesion(s)) of the same molecule?
A: 28

Q: What about the quality of life (MS patients; over a long period of time) of the same molecule?
A: improvement

Q: What about the toxicity [1] of the same molecule?
A: no major toxicity

Q: And the “pain scores NRS” value (CRPS; patient, EDS, 3 mg then 4.5 mg per day, from (7-10)/10)?
A: 3-5 /10

Q: And the “post-operative pain NRS” value (CRPS; patient, 3 weeks after resuming)?
A: 4-6 /10

Q: What about the side effects (CRPS; patient, 18 months) of the same molecule?
A: No side effects

Q: What about the “fixed dystonia of the leg” value (CRPS; patient, at cast removal after ankle surgery) of the same molecule?
A: remission

Q: And the “effect on the dystonia” value (CRPS; patient, first months of treatment)?
A: no effect

Q: And the CRPS symptoms (CRPS; patient, maintained for 18 months)?
A: resolved completely

Q: And the side effects (CRPS; person five)?
A: No side effects

Q: And the “pain, average on the Numeric Rating Scale (NRS)” value (CRPS; person five, 4.5 mg per day at night, from 8 to 10 before)?
A: 5 to 6

Q: What about the dystonic spasms (CRPS; person five, within 2 months) of the same molecule?
A: discontinued

Q: What about the shingles outbreaks (Shingles) of the same molecule?
A: not had a single outbreak

Q: And the “subjects with at least a 70-point decline in CDAI scores” value (Crohn's disease; 4.5-mg daily oral, placebo 40% (p=0.009))?
A: Eighty-eight

Q: And the “remission with a CDEIS score<6” value (Crohn's disease; after 12 weeks, placebo 8%)?
A: 33%

Q: And the “endoscopic response (5-point decline in CDEIS)” value (Crohn's disease; after 12 weeks, placebo 28% (p=0.008))?
A: 78%

Q: What about the “completion of chemotherapy protocol” value (colon cancer; person, 4.5 mg nightly with chemotherapy) of the same molecule?
A: without any major side effects

Q: What about the “scans every six months” value (colon cancer; until June of 2015) of the same molecule?
A: cancer free

Q: What about the “MRI over the last 8 years” value (multiple sclerosis; person six) of the same molecule?
A: no progression of the disease

Q: And the relapses (multiple sclerosis; person six, 4.5 mg at bedtime since 2002)?
A: not had a one relapse

Q: What about the MRI (multiple sclerosis; person, SPMS, 1.5 mg to 3 mg, January of 2011) of the same molecule?
A: reduced plaque and lesion size

Q: What about the mobility (multiple sclerosis; person, Secondary Progressive, 1.5 mg to 3 mg) of the same molecule?
A: upgraded from wheelchair to cane

Q: And the “time to walking again with a cane” value (multiple sclerosis; person, wheelchair bound, 3 mg nightly)?
A: ≤ 10 days

Q: And the Exacerbations (multiple sclerosis; person, 1.5 mg increasing to 4.5 mg nightly, with hormones and Cortef)?
A: became less frequent and have stopped

Q: And the disease course (multiple sclerosis; person, 4.5 mg for seven months)?
A: the disease has stabilized and the progressive deterioration has stopped

Q: And the relapses (multiple sclerosis; person, 4.5 mg nightly, update 2010)?
A: no relapses

Q: And the side effects (multiple sclerosis; person, after increase to 4.5 mg)?
A: some insomnia

Q: And the “disease symptoms at follow-up” value (Follicular Lymphoma (FL))?
A: remains asymptomatic

Q: And the “improvement in CD4 count, increase” value (asymptomatic HIV+ adults; about 4.5 mg single oral dose with ART, at 3 months, vs control group)?
A: 44%

Q: What about the BMI (asymptomatic HIV+ adults; about 4.5 mg with ART) of the same molecule?
A: increase

Q: What about the opportunistic infections (asymptomatic HIV+ adults; about 4.5 mg with ART) of the same molecule?
A: reduction

Q: What about the “Improvement in CD4%” value (asymptomatic HIV+ adults; about 4.5 mg with ART, throughout treatment) of the same molecule?
A: statistically significant

Q: What about the language skills (autism) of the same molecule?
A: improved

Q: And the side effect (autism)?
A: a little constipation

Q: What about the illness (autism; continually sick before) of the same molecule?
A: has not been sick since starting

Q: And the hyperactivity (autism; 3 mg)?
A: increased for the first three weeks

Q: And the social behaviors (autism; 3 mg, over the next months)?
A: skyrocketed

Q: What about the Fatigue (Rheumatoid Arthritis; person two) of the same molecule?
A: gone

Q: And the Rheumatoid factor (Rheumatoid Arthritis; person two, 4.5 mg at bedtime, from 127 in 4 months)?
A: 66

Q: What about the disease course (Rheumatoid Arthritis; person, 4.5 mg with multi-part protocol, 7 years later) of the same molecule?
A: not advanced

Q: And the “use of other medication” value (Rheumatoid Arthritis; person, titrated to 4.5 mg, March of 2010)?
A: Successfully discontinued methotrexate

Q: And the blood work (prostate cancer)?
A: stayed stable

Q: What about the “overall quality of life” value (prostate cancer) of the same molecule?
A: much better

Reference: US20170239239A1, “Method for Inducing a Sustained Immune Response” (Immune Therapeutics Inc., priority 2016, published 2017)
